The values below come from patent US5336485A, “Method for protecting animals against tacrine induced cytotoxic injury using sterol compounds” (priority 1993, dated 1994).

Structures can show the parent of a compound that is named as a salt. Where two headings read alike, the source gives them in different places.

Data set [1] concerns rat hepatocytes. The data set is described as follows: EMS-induced cytotoxicity (LDH leakage/cell death) in rat hepatocyte suspensions. As to conditions: for inhibition at 25 µM: Rattus norvegicus, Hepatocyte; for inhibition at 25 µM / Percent Cytoprotection: 5 h; for Cell Death: 5 Hrs, alpha-TS 25, methyl ester 50, cholesteryl succinate 100, monomethyl/dimethyl succinate 250 μM. The protocol:
To determine if alpha-TS is a cytoprotective agent under physiological conditions, liver cells were incubated with Waymouth's medium containing approximately 1 mM extracellular Ca^2+ in the presence and absence of alpha-TS.
(§1) At each time-point, rapid separation of viable from non-viable hepatocytes and medium was accomplished by the dibutyl phthalate centrifugation method. Cell viability was monitored hourly by measuring LDH leakage with a Cobas Analyzer and intracellular [K^+ ]with a flame photometer. LDH was routinely measured in the medium while intracellular K^+ was measured in the 10% perchloric acid lysate of viable cells. Lipid peroxidation was determined by measuring TBA reactants in the medium. […] The samples were diluted with 0.3 ml 1% ascorbate in 0.1 M SDS, 0.4 ml ethanol, sonicated and extracted once with 0.8 ml hexane. Next, the hexane extract was evaporated to dryness with N2, the residue dissolved in 2.5% ascorbate in methanol (1 ml) and analyzed (100 μl) by high-performance liquid chromatograph (HPLC). […] The mobile phase, 95% MeOH was run isocratically and the HPLC retention times for delta and alpha-tocopherol were approximately eleven and sixteen minutes, respectively. […] Following the addition of 0.2 ml 4 M HC1, the neutralized KOH-MeOH extracted with 0.8 ml hexane. […] A standard curve for each tocopherol congener was run with every assay. […] Only viable cells were monitored in the laboratory procedures.
To determine the relative cytoprotective potency of various tocopherol derivatives, the effect of varying doses of a tocopherol analog on the protection against EMS-induced toxicity was examined in vitro on rat hepatocyte suspensions. Specifically, the following ionizable tocopherol congeners were tested: alpha-TS, alpha tocopheryl glutarate (alpha-TG), and alpha tocopheryl phosphate (alpha-TP). […] 0.1 nmoles is the lower detection limit.
In vitro experiments were conducted with a variety of different tocopherol and succinate analogs to determine which were protective against EMS induced toxicity. After five hours of incubation with 50 mM EMS and 25μM of a tocopherol or succinate analog, cytoprotection was determined by comparing the percentage of LDH leakage from control hepatocytes (vehicle only, assumed 100% protection) with the EMS only treated cells (assumed 0% protection).
An in vitro experiment with rat hepatocyte suspensions was performed to determine the effect of esterase inhibitors on alpha-TS.
(§2) Rat hepatocyte suspensions were subjected to 50 mM EMS and the percentage of cell death, the percentage of intracellular K^+ (a metabolic parameter as discussed above), the depletion of ATP and the effect on lipid peroxidation were monitored.
In general terms: LDH leaks from cells whose membrane has failed.

The subject of a further data set is male Sprague-Dawley rats. The data set can be described thus: CCl4 induced lethality in rats. The following applies: for Survival after CCl4 treatment: 100 mg/kg ip 24 h prior, […] CCl4 oral. It is filed as in vivo, rat. The protocol:
The in vivo effect of alpha-TS was tested by administering a lethal oral dose of carbon tetrachloride (CC14) to male Sprague-Dawley rats.
In the experiment described in Table 3, a single dose of alpha-TS dissolved in peanut oil:ethanol (3:2) was given to male Sprague-Dawley rats. The dose was given 24 hours prior to an orally administered CCl4 challenge dissolved in peanut oil. Two to nine animals were tested per treatment. The control group comprised rats pretreated with the vehicle only. Survival was monitored for at least 7 days after the toxic insult.
In vivo experiments were performed to determine if the time the ionizable tocopherol analog (alpha-TS) is administered affects the cytoprotective functions. Male Sprague-Dawley rats were given a 100 mg/kg intraperitoneal dose of a tocopherol or succinate analog and were given a lethal dose of CCl4 (2.9g/kg by oral gavage). Table 7 contrasts the times of administration of the tocopherol or succinate analog and the times of administration of the lethal dose of CCl4 with the survival of the rats in the study (3to 6 rats per protective treatment).
Several tocopherol and succinate analogs were tested for CCl4 induced lethality. A single dose of the tocopherol or succinate analog was administered twenty four hours prior to orally administering 2.9 g CCl4 /kg body weight. Three to six animals were analyzed per treatment. The rats were monitored for seven days. […]

The subject of a further data set is liver. The data set is described as follows: CCl4 induced hepatotoxicity in rats (serum AST/ALT). It is filed as in vivo, rat. As for the experimental part:
In vivo experiments were performed to determine if alpha-TS administration protects the liver from chemical toxicity. The liver is the target organ for CCl4. CCl4 is a hepatotoxic agent that induces centrilobular liver necrosis through its metabolism to free radicals. Male Sprague-Dawley rats were given an intraperitoneal dose (100 mg/kg) of a tocopherol analog 24 hours prior to a CCl4 challenge (2.9g/kg given by oral garage). Forty eight hours after the challenge, the rats were sacrificed and the levels of aspartate aminotransferase (AST) and alanine aminotransferase (ALT) were measured.
As discussed above, SGOT levels provide a clinical assessment of hepatotoxicity (liver damage).
Succinate analogs were administered to male Sprague-Dawley rats 20 hours prior to a 1 g CCl4 /kg body weight oral challenge and the AST and ALT serum enzyme levels were measured 48 hours after the challenge.
Similar to the experiments were described above, the ionizable congeners were administered to Sprague-Dawley rats by i.p. injection of a 100 mg ionizable congener/kg body weight dose 20 hours prior to oral administration of a 1 g/kg dose of CCl4, and the AST and ALT levels were measured 48 hours after the CCl4 challenge.

The test system of data set [2] is rat hepatocytes. The data set is described as follows: EMS-induced lipid peroxidation in rat hepatocyte suspensions. As to conditions: 50 mM EMS, 5 Hrs; concentrations as cell death (Table 15). The data set is classed as cell-based. As for the experimental part: as §1, §2
The nature of data set [3]: Tissue distribution of alpha-tocopherol and alpha-tocopherol ester in rats. The data set is classed as in vivo, rat. The following applies: K+ salt in saline, 1 dose 100 mg/kg, 24 h. As for the experimental part: 100 mg/kg body weight of a tocopherol analog was administered to Sprague-Dawley rats using a peanut oil:ethanol vehicle (3:2). Twenty four hours later the rats were sacrificed and the accumulation of the tocopherol analog in the liver was determined.
A similar in vivo experiment to that discussed in conjunction with Table 5 was performed to determine if other tissues accumulate alpha-TS. Male Sprague-Dawley rats were given a 100 mg/kg dose of alpha-TS using a variety of chemical forms and vehicles. A variety of techniques were used to administer the alpha-TS. Twenty four hours later the rats were sacrificed and the tissues were tested for alpha-TS accumulation.

The mark [4] stands for this setting: read-out: Percent Cytoprotection, 25 μM, 50 mM EMS, 5 h.
[5] abbreviates: 100 mg/kg, single dose 24 h prior, CCl4 […].
Where [6] appears, read: 100 mg/kg ip, 48 h after 1 g/kg CCl4 (Table 31).
[7] abbreviates: 1 g/kg, single dose 24 h prior, CCl4 […].

Turning to `Cc1c(C)c2c(c(C)c1OC(=O)CC(C)C(=O)O)CC[C@@](C)(CCC[C@H](C)CCC[C@H](C)CCCC(C)C)O2` (stereo partly drawn) [Alpha-Tocopherol 3-Methyl Succinate, alpha-tocopheryl 3-methyl succinate], the inhibition at 25 µM in the data set with rat hepatocytes [1] (setting [4]) came out at 70 ± 9%. Moreover, in the data set with male Sprague-Dawley rats, the “Survival after CCl4 treatment” value is given as “No”. Besides, the “Days Survived After CCl4 Treatment” value with male Sprague-Dawley rats (setting [5]) was found to be 2 days.

`Cc1c(C)c2c(c(C)c1OC(=O)CCCC(=O)O)CCC(C)(CCCC(C)CCCC(C)CCCC(C)C)O2` (stereo not drawn) [Alpha-Tocopherol Glutarate, alpha-tocopherol monoglutarate]: the inhibition at 25 µM with rat hepatocytes [1] (setting [4]) was 55 ± 15%. Further, the “Survival after CCl4 treatment” value with male Sprague-Dawley rats was “No”. For the same molecule, the “Days Survived After CCl4 Treatment” value with male Sprague-Dawley rats (setting [5]) was determined as 2 days.

Turning to `Cc1c(C)c2c(c(C)c1OC(=O)CCC(N)=O)CC[C@@](C)(CCC[C@H](C)CCC[C@H](C)CCCC(C)C)O2` [Alpha-Tocopherol Succinamide], in the data set with rat hepatocytes [1] (setting [4]), the inhibition at 25 µM was determined as 0%.

For `CC(C)CCC[C@@H](C)[C@H]1CC[C@H]2[C@@H]3CC=C4C[C@@H](O)CC[C@]4(C)[C@H]3CC[C@]12C` [Cholesterol, reference compound], the inhibition at 25 µM in the data set on rat hepatocytes [1] (setting [4]) amounted to 30 ± 16%. Besides, the “Survival after CCl4 treatment” value in the data set on male Sprague-Dawley rats is “No”. In addition, in the data set on male Sprague-Dawley rats (setting [5]), the “Days Survived After CCl4 Treatment” value turned out to be 2 days. In the data set on liver (setting [6]), the ALT is listed as 1.16 ± 0.41 10^3 units/L and the AST was 3.03 ± 0.84 10^3 units/L. The “SGOT Levels” value in the data set with liver (100 mg/kg ip, 48 h after 1.0 g/kg CCl4) is 4.08 ± 2.45 10^3 units/L. Further, the “protection against CCl4 hepatotoxicity (in words)” value in the data set on liver (rats, serum enzyme levels) is given as “provided no protection”.

On to `Cc1cc(OC(=O)CCC(=O)O)cc2c1OC(C)(CCCC(C)CCCC(C)CCCC(C)C)CC2` (stereo not shown) [Delta-Tocopherol Succinate, Delta-tocopherol mono succinate], for which, in the data set with rat hepatocytes [1] (setting [4]), the inhibition at 25 µM came out at 70 ± 24%.

For `Cc1cc(O)cc2c1OC(C)(CCCC(C)CCCC(C)CCCC(C)C)CC2` (stereo not shown) [Delta-Tocopherol, reference compound], the inhibition at 25 µM with rat hepatocytes [1] (read-out: Percent Cytoprotection) stood at 0%.

Turning to `COC(=O)CCC(=O)OC` [Dimethyl Succinate, reference compound], the “Cell Death” value in the data set with rat hepatocytes [1] (50 mM EMS) is recorded as 60 ± 1%. Further, the “Lipid Peroxidation” value in the data set with rat hepatocytes [2] was found to be 12.6 ± 0.2 nmolMDA/10^6 cells. Besides, the “Days Survived after CCl4” value in the data set on male Sprague-Dawley rats (1 g/kg, 24 and 1 hour prior) stood at 2 days. Also, the “Days Survived After CCl4 Treatment” value in the data set on male Sprague-Dawley rats (setting [7]) was 2 days. Further, the “cytoprotection (Table 7, in words)” value with male Sprague-Dawley rats (rat, in vivo) is “not cytoprotective”.

Regarding `Cc1c(C)c2c(c(C)c1OC(=O)CCC(=O)O)CC[C@@](C)(CCC[C@H](C)CCC[C@H](C)CCCC(C)C)O2` [K + salt of Alpha-TS, Alpha-Tocopherol Succinate, K^+ Salt], the “Percent Cytoprotection” value with rat hepatocytes [1] (25 μM, 50 mM EMS, K^+ Salt, 300 min, 25 µM) is reported as 97 ± 3%. Further, in the data set with male Sprague-Dawley rats (setting [5]), the “Days Survived After CCl4 Treatment” value is over 7 days. In data set [3] ((c) ip), the “alpha-TS, Blood” value is listed as 19 nmoles/gm of Tissue; the “alpha-TS, Heart” value is given as 18 nmoles/gm of Tissue; the “alpha-TS, Kidney” value is listed as 15 nmoles/gm of Tissue; the “alpha-TS, Liver” value was 518 nmoles/gm of Tissue. Besides, in data set [3] ((c) ip), the “alpha-TS, Lung” value is listed as 60 nmoles/gm of Tissue and the “alpha-TS, Plasma” value is reported as 24 nmoles/gm of Tissue. In addition, in data set [3] ((d) iv), the “alpha-TS, Blood” value is given as 18 nmoles/gm of Tissue; the “alpha-TS, Heart” value was 24 nmoles/gm of Tissue; the “alpha-TS, Kidney” value is listed as 27 nmoles/gm of Tissue; the “alpha-TS, Liver” value was 445 nmoles/gm of Tissue. Further, in data set [3] ((d) iv), the “alpha-TS, Lung” value is on record as 385 nmoles/gm of Tissue and the “alpha-TS, Plasma” value is given as 30 nmoles/gm of Tissue.

`COC(=O)CCC(=O)O` [Monomethyl Succinate, reference compound]: in the data set with rat hepatocytes [1] (50 mM EMS), the “Cell Death” value is reported as 61 ± 5%. Besides, the “Lipid Peroxidation” value with rat hepatocytes [2] is on record as 12.8 ± 1.0 nmolMDA/10^6 cells. Moreover, the “Days Survived after CCl4” value in the data set with male Sprague-Dawley rats (1 g/kg, 24 and 1 hour prior) worked out at 2 days. Also, the “Days Survived After CCl4 Treatment” value in the data set with male Sprague-Dawley rats (setting [7]) stood at 2 days.

For the molecule `O=C(O)CCC(=O)O` [Succinic Acid, Na Salt, reference compound], the “Days Survived after CCl4” value in the data set with male Sprague-Dawley rats (1 g/kg, 24 hours or 1 hour prior and daily thereafter) turned out to be 2 days. For the same molecule, the “Days Survived After CCl4 Treatment” value with male Sprague-Dawley rats (setting [7]) turned out to be 2 days.

On to “d-alpha-tocopheryl polyethylene glycol 1,000 succinate”, for which the “Percent Cytoprotection” value in the data set with rat hepatocytes [1] (25 μM, 50 mM EMS) is reported as 80 ± 15%. Moreover, the “protection from lethal effects of EMS” value in the data set with rat hepatocytes [1] (rat hepatocytes, 25 μM, 50 mM EMS) was “protection was observed against EMS-induced toxicity”. The “Days Survived After CCl4 Treatment” value in the data set with male Sprague-Dawley rats (200 mg/Kg, iv, 24 h prior) is over 7 days; in the data set on male Sprague-Dawley rats (200 mg/kg, oral, 24 h prior) it was 2 days; in the data set on male Sprague-Dawley rats (100 or 200 mg/Kg, single dose 24 h prior), over 7 days.
